Experimental data: ChEMBL document CHEMBL1201862, “PubChem BioAssay data set” (2004)
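All cell lines were grown in 96-well plates and treated with compound for 48 hours. The concentration for 50% growth inhibition is given as GI50.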 The source made the active and inactive calls. No stated cut-off is given here; in the data, active = GI50 up to about 1.1 µM and inactive = higher.

Columns and labels:
Assay in all cases: NCI anticancer screen, dose series, 48 h
A549 = test system: A549
MOLT-4 = test system: MOLT-4
HT-29 = test system: HT-29
OVCAR-8 = test system: OVCAR-8
NCI-H23 = test system: NCI-H23
HCT-116 = test system: HCT-116
TK-10 = test system: TK-10
UACC-62 = test system: UACC-62
HL-60 = test system: HL-60
IGROV-1 = test system: IGROV-1
SF-268 = test system: SF-268
NCI-H460 = test system: NCI-H460
SK-MEL-28 = test system: SK-MEL-28
EKVX = test system: EKVX
SK-OV-3 = test system: SK-OV-3
UO-31 = test system: UO-31
HCT-15 = test system: HCT-15
ACHN = test system: ACHN
HOP-92 = test system: HOP-92
BT-549 = test system: BT-549

SMILES	GI50 (A549)	GI50 (MOLT-4)	GI50 (HT-29)	GI50 (OVCAR-8)	GI50 (NCI-H23)	GI50 (HCT-116)	GI50 (TK-10)	GI50 (UACC-62)	GI50 (HL-60)	GI50 (IGROV-1)	GI50 (SF-268)	GI50 (NCI-H460)	GI50 (SK-MEL-28)	GI50 (EKVX)	GI50 (SK-OV-3)	GI50 (UO-31)	GI50 (HCT-15) [µM]	GI50 (ACHN)	GI50 (HOP-92)	GI50 (BT-549)
Nn1c(CCCl)nc2c(Br)cc(Br)cc2c1=O	43.7 µM (inactive)	22.7 µM (inactive)	32.7 µM (inactive)	41.5 µM (inactive)	24 µM (inactive)	25.3 µM (inactive)	34.3 µM (inactive)	31.9 µM (inactive)	2.77 µM (inactive)	21 µM (inactive)	37.1 µM (inactive)	25.3 µM (inactive)	37.2 µM (inactive)	29.8 µM (inactive)	33.1 µM (inactive)	25.1 µM (inactive)	22.1	22.9 µM (inactive)	33 µM (inactive)	–
Cc1ccc([N+](=O)[O-])cc1NC(=O)C(=O)Cc1nc2ccc(C(=O)c3ccccc3)cc2nc1O	> 100 µM (inactive)	> 100 µM (inactive)	> 100 µM (inactive)	> 100 µM (inactive)	> 100 µM (inactive)	> 100 µM (inactive)	> 100 µM (inactive)	> 100 µM (inactive)	> 100 µM (inactive)	> 100 µM (inactive)	–	> 100 µM (inactive)	> 100 µM (inactive)	> 100 µM (inactive)	> 100 µM (inactive)	> 100 µM (inactive)	> 100	> 100 µM (inactive)	42.2 µM (inactive)	–
COC(=O)C1=Cc2c(cc(OC)c(OC)c2OC)[C@H](c2ccc(OC)c(OC)c2OC)C1C(=O)OC (some centres undefined)	> 100 µM (inactive)	83 µM (inactive)	36.1 µM (inactive)	> 100 µM (inactive)	> 100 µM (inactive)	92.3 µM (inactive)	> 100 µM (inactive)	54.2 µM (inactive)	54.6 µM (inactive)	> 100 µM (inactive)	> 100 µM (inactive)	> 100 µM (inactive)	> 100 µM (inactive)	> 100 µM (inactive)	> 100 µM (inactive)	47.1 µM (inactive)	75	> 100 µM (inactive)	17.4 µM (inactive)	–
CC1(C)OCN(c2ccc(S(N)(=O)=O)cc2)Cn2c1nc1ccccc12	> 100 µM (inactive)	> 100 µM (inactive)	> 100 µM (inactive)	> 100 µM (inactive)	> 100 µM (inactive)	> 100 µM (inactive)	> 100 µM (inactive)	> 100 µM (inactive)	> 100 µM (inactive)	> 100 µM (inactive)	> 100 µM (inactive)	> 100 µM (inactive)	> 100 µM (inactive)	> 100 µM (inactive)	> 100 µM (inactive)	> 100 µM (inactive)	> 100	> 100 µM (inactive)	> 100 µM (inactive)	–
COC1=CCC2=C(CCN(C(=O)C3CCC3)C2Cc2ccc(OC)c(O)c2)C1 (centres undefined)	31.6 µM (inactive)	12.7 µM (inactive)	20.3 µM (inactive)	37.2 µM (inactive)	10 µM (inactive)	11.9 µM (inactive)	17.5 µM (inactive)	20.4 µM (inactive)	4.3 µM (inactive)	26.8 µM (inactive)	33.1 µM (inactive)	12.2 µM (inactive)	45.3 µM (inactive)	25.7 µM (inactive)	20.5 µM (inactive)	–	4.85	35.4 µM (inactive)	20.9 µM (inactive)	–
CCCCCCCCCCCCC/C=C/[C@@H](O)[C@H](COC1OC(CO)C(OC2OC(CO)C(O)C(OC3(C(=O)O)CC(O)C(NC(C)=O)C(C(O)C(O)CO)O3)C2O)C(O)C1O)N=[N+]=[N-] (some centres undefined)	> 100 µM (inactive)	21.7 µM (inactive)	22 µM (inactive)	21.8 µM (inactive)	> 100 µM (inactive)	70.1 µM (inactive)	> 100 µM (inactive)	15.8 µM (inactive)	37.5 µM (inactive)	32.9 µM (inactive)	22.2 µM (inactive)	36.9 µM (inactive)	30.3 µM (inactive)	> 100 µM (inactive)	31.2 µM (inactive)	23 µM (inactive)	72.9	> 100 µM (inactive)	> 100 µM (inactive)	–
Cc1cc2nn(C3CCCCO3)nc2cc1C (centres undefined)	> 100 µM (inactive)	> 100 µM (inactive)	> 100 µM (inactive)	> 100 µM (inactive)	> 100 µM (inactive)	> 100 µM (inactive)	> 100 µM (inactive)	> 100 µM (inactive)	–	> 100 µM (inactive)	> 100 µM (inactive)	> 100 µM (inactive)	–	> 100 µM (inactive)	> 100 µM (inactive)	75.7 µM (inactive)	> 100	> 100 µM (inactive)	–	> 100 µM (inactive)
